{
  "source": "patent US8198293B2",
  "about": "“Oxymatrine compositions and related methods for treating and preventing chronic infectious diseases” (priority 2008, dated 2012)",
  "key": {"enterovirus protein": {"system": "enterovirus protein", "test": "Immunoperoxidase staining of stomach biopsy for enterovirus protein (5D8/1)", "assay_type": "in vivo, human", "conditions": "one patient (case 5), before vs after taking oxymatrine for 6 months; correlated with symptomatic improvement", "excerpt": "FIG. 2 illustrates the infected human stomach (biopsy of case 5 stained with 5D8/1) before treatment with oxymatrine.\nFIG. 3 illustrates the stomach biopsy of case 5 stained with 5 D8/1 after taking oxymatrine for 6 months.\nFIG. 2 illustrates immunoperoxidase staining for enterovirus protein in a stomach biopsy before oxymatrine therapy for one patient. […] The decrease in viral protein correlated with significant symptomatic improvement."}, "chronic hepatitis B": {"system": "chronic hepatitis B", "conditions": "oral, after one year of treatment; cited from earlier work"}, "enterovirus": {"system": "enterovirus", "test": "Case report: acute enterovirus infection of the gastrointestinal tract", "assay_type": "in vivo, human", "conditions": "Example 10 patient, 200 mg bid, after ten days", "excerpt": "A person developed subacute onset of severe fatigue, nausea, anorexia and progressive weight loss of 20 pounds following an upper respiratory infection."}, "[1]": {"system": "enterovirus infection (ME/CFS patients)", "test": "Oxymatrine open-label, controlled clinical study in ME/CFS patients with enterovirus infection", "assay_type": "in vivo, human", "experimental": "An open-label, controlled study was conducted on patients who fulfilled the international criteria for myalgic encephalomyelitis (ME)/chronic fatigue syndrome (CFS) and had virological evidence of enterovirus infection.\nOne hundred patients took oxymatrine at dose of 200-300 mg twice a day with or without food for a minimum of three months. Patients who could not complete the course due to side effects or intolerance were considered as failures (intent-to-treat analysis). Of the first group, 52% ( 52/100) responded to oxymatrine, as compared to 6% ( 7/114) of the control groups (p<0.000001, x^2 test). Of the next 104 patients, 52% responded to treatment. […] Fifty-three percent ( 57/107) of patients with elevated coxsackie virus B (CVB) and echovirus (Ech) antibody responded to therapy and 50% ( 49/97) of patients with non-typeable EV infections improved (NS, x^2 test). Fifty-two percent ( 47/91) of patients with positive EV protein in stomach biopsies responded, whereas 56% ( 5/9) of patients with negative biopsies responded (NS, x^2 test).\nRelapse of symptoms was common after discontinuing oxymatrine. Fifty-nine percent ( 19/32) of patients (4 male, 15 female) relapsed within two days to one month after discontinuation of oxymatrine. Eighty-seven percent ( 13/15) of patients who relapsed responded to restart of oxymatrine. Subsequent responders were continued on oxymatrine beyond six months.\nA small percentage ( 2/204) of patients had transient increase in potassium, which returned to normal without specific treatment. A small percentage of patients ( 2/204) had elevated blood pressure that prompted discontinuation of therapy. […] Transient, moderate increase in pre-existing symptoms were reported by more than 50% of the patients but most patients continued to take the herbs at the same or reduced dose. Twenty patients (10%) stopped oxymatrine within the first eight weeks due to intolerable side effects. […]"}, "[2]": {"conditions": "side effects in 176 patients having taken oxymatrine"}},
  "data": [
    {"molecule": "O=C1CCC[C@@H]2[C@H]3CCC[N@+]4([O-])CCC[C@@H](CN12)[C@@H]34", "note": "[oxymatrine]", "values": [
      {"measurement": "enterovirus protein in stomach biopsy by staining with monoclonal antibody 5D8/1", "setting": "enterovirus protein", "result": "significant reduction in viral protein"},
      {"measurement": "overall cure rate", "setting": "chronic hepatitis B", "result": "about 40%"},
      {"measurement": "clinical outcome", "setting": "enterovirus", "result": "resumed their normal activity"},
      {"measurement": "relapsed patients who responded to restart of oxymatrine", "setting": "[1]; 13/15", "result": "Eighty-seven"},
      {"measurement": "patients relapsed after discontinuation of oxymatrine", "setting": "[1]; 19/32, within two days to one month after discontinuation", "result": "Fifty-nine"},
      {"measurement": "duration of the increase in symptoms", "setting": "[1]; better tolerated when dose increased gradually over 2-3 weeks or longer", "result": "a few days to several weeks"},
      {"measurement": "patients reporting transient, moderate increase in pre-existing symptoms", "setting": "[1]; both, human, in vivo", "result": "more than 50%"},
      {"measurement": "changes of other chemistry parameters and complete blood counts (CBC)", "setting": "[1]; compared to baseline values", "result": "no significant changes"},
      {"measurement": "tolerability in most of the patients", "setting": "[1]; except variable increase of pre-existing symptoms during the first 1-2 days of maximal doses", "result": "tolerated oxymatrine well"},
      {"measurement": "patients responded to oxymatrine", "setting": "[1]; first group (52/100), 200-300 mg twice a day, minimum three months, intent-to-treat, control 6% (7/114)", "result": 52, "unit": "%"},
      {"measurement": "serious complications during therapy", "setting": "[1]; human, in vivo", "result": "No serious complications"},
      {"measurement": "patients responded to treatment", "setting": "[1]; next 104 patients", "result": 52, "unit": "%"},
      {"measurement": "patients with elevated blood pressure that prompted discontinuation of therapy", "setting": "[1]; of 204 patients", "result": "2/204"},
      {"measurement": "patients with transient increase in potassium", "setting": "[1]; of 204 patients, returned to normal without specific treatment", "result": "2/204"},
      {"measurement": "patients responded to therapy", "setting": "[1]; patients with elevated coxsackie virus B and echovirus antibody (57/107)", "result": "Fifty-three"},
      {"measurement": "patients improved", "setting": "[1]; patients with non-typeable EV infections (49/97)", "result": 50, "unit": "%"},
      {"measurement": "patients responded", "setting": "[1]; patients with positive EV protein in stomach biopsies (47/91)", "result": "Fifty-two"},
      {"measurement": "Diffuse rashes, % of total patients", "setting": "[1]; [2]", "result": "<1", "unit": "%"},
      {"measurement": "Dry eyes and mouth, % of total patients", "setting": "[1]; [2]", "result": 1, "unit": "%"},
      {"measurement": "Fevers, % of total patients", "setting": "[1]; [2]", "result": 2, "unit": "%"},
      {"measurement": "Herpes simplex virus outbreak after discontinuation, % of total patients", "setting": "[1]; [2]", "result": 1, "unit": "%"},
      {"measurement": "Increase in blood pressure, % of total patients", "setting": "[1]; [2]", "result": 1, "unit": "%"},
      {"measurement": "Increase in edema, % of total patients", "setting": "[1]; [2]", "result": 1, "unit": "%"},
      {"measurement": "Increased abdominal pain, % of total patients", "setting": "[1]; [2]", "result": 6, "unit": "%"},
      {"measurement": "Increased bladder symptoms, % of total patients", "setting": "[1]; [2]", "result": 2, "unit": "%"},
      {"measurement": "Increased diarrhea, % of total patients", "setting": "[1]; [2]", "result": 4, "unit": "%"},
      {"measurement": "Increased dizziness, % of total patients", "setting": "[1]; [2]", "result": 2, "unit": "%"},
      {"measurement": "Increased fatigue, % of total patients", "setting": "[1]; [2]", "result": 4, "unit": "%"},
      {"measurement": "Increased headache, % of total patients", "setting": "[1]; [2]", "result": 8, "unit": "%"},
      {"measurement": "Increased insomnia, % of total patients", "setting": "[1]; [2]", "result": 1, "unit": "%"},
      {"measurement": "Increased myalgia, % of total patients", "setting": "[1]; [2]", "result": 30, "unit": "%"},
      {"measurement": "Increased nausea, % of total patients", "setting": "[1]; [2]", "result": 6, "unit": "%"},
      {"measurement": "Increased palpitation, chest pain, % of total patients", "setting": "[1]; [2]", "result": 3, "unit": "%"},
      {"measurement": "Increased polyarthralgia, % of total patients", "setting": "[1]; [2]", "result": 1, "unit": "%"},
      {"measurement": "Increased sinus congestion, % of total patients", "setting": "[1]; [2]", "result": 3, "unit": "%"},
      {"measurement": "Inflammation of skin lesion, % of total patients", "setting": "[1]; [2]", "result": 1, "unit": "%"},
      {"measurement": "New rashes, % of total patients", "setting": "[1]; [2]", "result": "<1", "unit": "%"},
      {"measurement": "Seizure (petit mal), % of total patients", "setting": "[1]; [2]", "result": "<1", "unit": "%"},
      {"measurement": "Weight gain, % of total patients", "setting": "[1]; [2]", "result": 1, "unit": "%"},
      {"measurement": "outcome in one patient with severe increase in febrile response and marked worsening of symptoms", "setting": "[1]; toward the end of three months of medication", "result": "lasting remission"},
      {"measurement": "patients who stopped oxymatrine due to intolerable side effects", "setting": "[1]; within the first eight weeks, twenty patients", "result": 10, "unit": "%"}
    ]}
  ]
}
